In PubChem BioAssay (NCI):
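GI50 marks 50% less growth. TGI is the concentration that stops growth completely.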

How the values were obtained:
Assay in all cases: DTP human tumour cell line panel, 384-well format
A549 NSCLC = tested on: A549 NSCLC
ACHN renal = tested on: ACHN renal
BT-549 breast = tested on: BT-549 breast
CAKI-1 renal = tested on: CAKI-1 renal
COLO 205 colon = tested on: COLO 205 colon
DU-145 prostate = tested on: DU-145 prostate
EKVX NSCLC = tested on: EKVX NSCLC
HCC-2998 colon = tested on: HCC-2998 colon
HCT-116 colon = tested on: HCT-116 colon
HCT-15 colon = tested on: HCT-15 colon
HL-60(TB) leukemia = tested on: HL-60(TB) leukemia
HOP-62 NSCLC = tested on: HOP-62 NSCLC
HOP-92 NSCLC = tested on: HOP-92 NSCLC
HS 578T breast = tested on: HS 578T breast
HT29 colon = tested on: HT29 colon
IGROV1 ovarian = tested on: IGROV1 ovarian
K-562 leukemia = tested on: K-562 leukemia
KM12 colon = tested on: KM12 colon
LOX IMVI melanoma = tested on: LOX IMVI melanoma
MALME-3M melanoma = tested on: MALME-3M melanoma
MCF7 breast = tested on: MCF7 breast
MDA-MB-231 breast = tested on: MDA-MB-231 breast
MDA-MB-435 melanoma = tested on: MDA-MB-435 melanoma
MDA-MB-468 breast = tested on: MDA-MB-468 breast
MOLT-4 leukemia = tested on: MOLT-4 leukemia
NCI-H226 lung = tested on: NCI-H226 lung
NCI-H23 lung = tested on: NCI-H23 lung
NCI-H322M lung = tested on: NCI-H322M lung
NCI-H460 NSCLC = tested on: NCI-H460 NSCLC
NCI/ADR-RES ovarian = tested on: NCI/ADR-RES ovarian
OVCAR-3 ovarian = tested on: OVCAR-3 ovarian
OVCAR-4 ovarian = tested on: OVCAR-4 ovarian
OVCAR-5 ovarian = tested on: OVCAR-5 ovarian
OVCAR-8 ovarian = tested on: OVCAR-8 ovarian
SF-268 CNS = tested on: SF-268 CNS
SF-295 CNS = tested on: SF-295 CNS
SK-MEL-2 melanoma = tested on: SK-MEL-2 melanoma
SK-MEL-28 melanoma = tested on: SK-MEL-28 melanoma
SK-OV-3 ovarian = tested on: SK-OV-3 ovarian
SNB-75 CNS = tested on: SNB-75 CNS
SR leukemia = tested on: SR leukemia
SW-620 colon = tested on: SW-620 colon
T-47D breast = tested on: T-47D breast
TK-10 renal = tested on: TK-10 renal
U251 glioblastoma = tested on: U251 glioblastoma
UACC-62 melanoma = tested on: UACC-62 melanoma
UO-31 renal = tested on: UO-31 renal

With CC#CC(=O)N1CC[C@@H](n2c(=O)n(-c3ccc(Oc4ccccc4)cc3)c3c(N)ncnc32)C1 the GI50 (A549 NSCLC) was 34.8 µM, the TGI (A549 NSCLC) was greater than 100 µM and the GI50 (ACHN renal) was 31.6 µM. The TGI (ACHN renal) was greater than 100 µM, the GI50 (BT-549 breast) was 16.6 µM and the TGI (BT-549 breast) was 33.9 µM. It also gave a GI50 (CAKI-1 renal) of 23.5 µM, a TGI (CAKI-1 renal) greater than 100 µM and a GI50 (COLO 205 colon) of 37.1 µM. The TGI (COLO 205 colon) was greater than 100 µM, the GI50 (DU-145 prostate) was 25.5 µM and the TGI (DU-145 prostate) was greater than 70.2 µM. The GI50 (EKVX NSCLC) was 20.7 µM, the TGI (EKVX NSCLC) was greater than 77.2 µM and the GI50 (HCC-2998 colon) was 24.5 µM. The TGI (HCC-2998 colon) was 49.4 µM, the GI50 (HCT-116 colon) was 22.1 µM and the TGI (HCT-116 colon) was 54.8 µM. The GI50 (HCT-15 colon) was 28.6 µM, the TGI (HCT-15 colon) was greater than 89.5 µM and the GI50 (HL-60(TB) leukemia) was 13.9 µM. The TGI (HL-60(TB) leukemia) was 26.9 µM, the GI50 (HOP-62 NSCLC) was 21.3 µM and the TGI (HOP-62 NSCLC) was 61.8 µM. The GI50 (HOP-92 NSCLC) was 13.4 µM, the TGI (HOP-92 NSCLC) was greater than 59.6 µM and the GI50 (HS 578T breast) was 22.1 µM. It also gave a TGI (HS 578T breast) of 55.9 µM, a GI50 (HT29 colon) of 32.2 µM and a TGI (HT29 colon) greater than 100 µM. For the same compound, the GI50 (IGROV1 ovarian) was 16.8 µM, the TGI (IGROV1 ovarian) was 37.4 µM and the GI50 (K-562 leukemia) was 12.5 µM. It also gave a TGI (K-562 leukemia) of 38.4 µM, a GI50 (KM12 colon) of 27.4 µM and a TGI (KM12 colon) greater than 76.8 µM. The GI50 (LOX IMVI melanoma) was 18.8 µM, the TGI (LOX IMVI melanoma) was 36.2 µM and the GI50 (MALME-3M melanoma) was 37.2 µM. It also gave a TGI (MALME-3M melanoma) greater than 100 µM, a TGI (MCF7 breast) of 80.6 µM and a GI50 (MDA-MB-231 breast) of 22 µM. It also gave a TGI (MDA-MB-231 breast) greater than 67.8 µM, a GI50 (MDA-MB-435 melanoma) of 30 µM and a TGI (MDA-MB-435 melanoma) greater than 80.4 µM. For the same compound, the GI50 (MDA-MB-468 breast) was 10.1 µM, the TGI (MDA-MB-468 breast) was 24.5 µM and the GI50 (MOLT-4 leukemia) was 3.13 µM. For the same compound, the TGI (MOLT-4 leukemia) was 12.7 µM, the GI50 (NCI-H226 lung) was 21.8 µM and the TGI (NCI-H226 lung) was greater than 74.4 µM. For the same compound, the GI50 (NCI-H23 lung) was 30.9 µM, the TGI (NCI-H23 lung) was 99.6 µM and the GI50 (NCI-H322M lung) was 27.5 µM. For the same compound, the TGI (NCI-H322M lung) was greater than 100 µM, the GI50 (NCI-H460 NSCLC) was 17.1 µM and the TGI (NCI-H460 NSCLC) was 33.4 µM. It also gave a GI50 (NCI/ADR-RES ovarian) of 15.7 µM, a TGI (NCI/ADR-RES ovarian) of 41.3 µM and a GI50 (OVCAR-3 ovarian) of 14.3 µM. It also gave a TGI (OVCAR-3 ovarian) of 31.3 µM, a GI50 (OVCAR-4 ovarian) of 29.5 µM and a TGI (OVCAR-4 ovarian) greater than 100 µM. For the same compound, the GI50 (OVCAR-5 ovarian) was greater than 64.3 µM, the TGI (OVCAR-5 ovarian) was greater than 100 µM and the GI50 (OVCAR-8 ovarian) was 27.6 µM. It also gave a TGI (OVCAR-8 ovarian) greater than 100 µM, a GI50 (SF-268 CNS) of 25.1 µM and a TGI (SF-268 CNS) greater than 65 µM. It also gave a GI50 (SF-295 CNS) of 40.5 µM, a TGI (SF-295 CNS) greater than 100 µM and a GI50 (SK-MEL-2 melanoma) of 18.1 µM. For the same compound, the TGI (SK-MEL-2 melanoma) was 34.7 µM, the GI50 (SK-MEL-28 melanoma) was 68.3 µM and the TGI (SK-MEL-28 melanoma) was greater than 100 µM. For the same compound, the GI50 (SK-OV-3 ovarian) was 33.5 µM, the TGI (SK-OV-3 ovarian) was greater than 87.1 µM and the GI50 (SNB-75 CNS) was 28.6 µM. It also gave a TGI (SNB-75 CNS) of 77.2 µM, a GI50 (SR leukemia) of 5.69 µM and a TGI (SR leukemia) of 18.6 µM. The GI50 (SW-620 colon) was 25.6 µM, the TGI (SW-620 colon) was 55.9 µM and the GI50 (T-47D breast) was 11.9 µM. For the same compound, the TGI (T-47D breast) was 33.1 µM, the GI50 (TK-10 renal) was 36.5 µM and the TGI (TK-10 renal) was greater than 100 µM. It also gave a GI50 (U251 glioblastoma) of 18.1 µM, a TGI (U251 glioblastoma) of 40.3 µM and a GI50 (UACC-62 melanoma) of 22.8 µM. It also gave a TGI (UACC-62 melanoma) greater than 100 µM, a GI50 (UO-31 renal) of 31.8 µM and a TGI (UO-31 renal) greater than 100 µM.
